Assay results reported in patent publication US20130095503A1, “SERUM SPLA2-IIA AS DIAGNOSIS MARKER FOR PROSTATE AND LUNG CANCER” (UNIVERSITY OF CINCINNATI, priority 2010, published 2013).

What was measured:
Format in all cases: cell-based, human
[1] = tested on: sPLA2-IIA protein expression in LNCaP-AI cells; assay: Western blot of sPLA2-IIA protein expression in LNCaP-AI cells; settings: about 24 hours; for effect on sPLA2-IIA protein expression: basal states and EGF-induced expression, inhibitor ~20 μM (CI-1033 ~8 μM), FIGS. 2-4
Method: (§1) The role of sPLA2-IIA gene regulation in prostate cancer cells via the HER/HER2-PI3K-Akt-NF-κB pathway was investigated. A reporter assay was performed by transiently transfecting sPLA2-IIA(-800)-Luc (˜0.25 μg/well) reporter in LNCaP-AI cells (˜10^5 cells/well in 12-well plate). The cells were then treated with epidermal growth factor (hereinafter “EGF”) (˜100 ng/mL) without or with EGFR inhibitors Erlotinib (˜20 μM) and Gefitinib (˜20 μM), EGFR/HER2 dual inhibitors Lapatinib (˜20 μM) and CI-1033 (˜8 μM), phosphoinositide 3-kinase (hereinafter “PI3K”) inhibitor LY294002 (˜20 μM), and NF-κB inhibitor Bortezomib (˜20 μM) for about 24 hours. A luciferase assay was performed according to a standard protocol with Renilla luciferase as an internal control. Another reporter assay was performed wherein LNCaP-AI cells were starved in 1% stripped medium for about 24 hours. The cells were the treated with Erlotinib (˜20 μM), Gefitinib (˜20 μM), Lapatinib (˜20 μM), CI-1033 (˜8 μM), LY294002 (˜20 μM), Bortezomib (˜20 μM), and/or Heregulin-α (˜50 ng/mL) without or with EGF (˜100 ng/mL) for about 24 hours.
Cell extracts were then prepared and subjected to western blot analysis for sPLA2-IIA, P-Akt, Akt, and β-actin. Briefly, aliquots of samples with the same amount of protein, determined using the Bradford assay (BioRad, Hercules, Calif.), were mixed with loading buffer (final concentrations of 62.5 mM Tris-HCl, pH 6.8, 2.3% sodium dodecyl sulfate, 100 mM dithiothreitol, and 0.005% bromophenol blue), boiled, fractionated in a sodium dodecyl sulfate-polyacrylamide gel electrophoresis, and transferred onto a 0.45-μm nitrocellulose membrane (BioRad). The filters were blocked with 2% fat-free milk in PBS, and probed with primary antibody in phosphate buffered saline containing 0.1% Tween 20 (i.e., PBST) and 1% fat-free milk. The membranes were then washed four times in PBST and incubated with horseradish peroxidase-conjugated secondary antibody (BioRad) in PBST containing 1% fat-free milk. After washing four times in PBST, the membranes were visualized using the ECL Western Blotting Detection System (Amersham Co, Arlington Height, Ill.).

sPLA2-IIA gene promoter = assay: sPLA2-IIA(-800)-Luc reporter (luciferase) assay in LNCaP-AI cells; settings: about 24 hours, FIG. 1; for effect on EGF-stimulated promoter activity of sPLA2-IIA gene: EGF ~100 ng/mL with inhibitor ~20 μM (CI-1033 ~8 μM)
Method: as §1

[2] = tested on: sPLA2-IIA secretion by LNCaP-AI cells; assay: ELISA of sPLA2-IIA secreted into culture medium of LNCaP-AI cells; settings: inhibitor ~20 μM (CI-1033 ~8 μM), about 24 hours, FIG. 7
Method: Finally, LNCaP-AI cells were starved in 1% stripped medium for about 24 hours. The cells were then treated with Erlotinib (˜20 μM), Gefitinib (˜20 μM), Lapatinib (˜20 μM), CI-1033 (˜8 μM), LY294002 (˜20 μM), and Bortezomib (˜20 μM) for about 24 hours. Cell culture medium was collected from each sample and subjected to ELISA for sPLA2-IIA. The condition medium samples were diluted 10 times for ELISA. The average of duplicate samples was converted to nanogram per milliliter against standard curve. The data represent one of five repeated experiments.

[3] = tested on: sPLA2-IIA expression in LAPC-4 and DU145 cells; assay: Western blot of sPLA2-IIA expression in LAPC-4 and DU145 cells; settings: Lapatinib ~20 μM, via blocking PI3K-Akt signaling, FIG. 5
Method: A reporter assay was performed by transiently transfecting sPLA2-IIA(-800)-Luc (˜0.25 μg/well) reporter in LNCaP-AI cells (˜10^5 cells/well in 12-well plate). The cells were then treated with epidermal growth factor (hereinafter “EGF”) (˜100 ng/mL) without or with EGFR inhibitors Erlotinib (˜20 μM) and Gefitinib (˜20 μM), EGFR/HER2 dual inhibitors Lapatinib (˜20 μM) and CI-1033 (˜8 μM), phosphoinositide 3-kinase (hereinafter “PI3K”) inhibitor LY294002 (˜20 μM), and NF-κB inhibitor Bortezomib (˜20 μM) for about 24 hours. A luciferase assay was performed according to a standard protocol with Renilla luciferase as an internal control. Another reporter assay was performed wherein LNCaP-AI cells were starved in 1% stripped medium for about 24 hours. […] Briefly, aliquots of samples with the same amount of protein, determined using the Bradford assay (BioRad, Hercules, Calif.), were mixed with loading buffer (final concentrations of 62.5 mM Tris-HCl, pH 6.8, 2.3% sodium dodecyl sulfate, 100 mM dithiothreitol, and 0.005% bromophenol blue), boiled, fractionated in a sodium dodecyl sulfate-polyacrylamide gel electrophoresis, and transferred onto a 0.45-μm nitrocellulose membrane (BioRad). […]

Molecule: EGF: epidermal growth factor
- sPLA2-IIA expression (western blot), stimulation by EGF ([1]; EGF ~100 ng/mL, FIGS. 2 and 3): stimulated sPLA2-IIA expression
- promoter activity of sPLA2-IIA gene (sPLA2-IIA gene promoter; EGF ~100 ng/mL): significantly stimulated

Molecule: CC(C)C[C@H](NC(=O)[C@H](Cc1ccccc1)NC(=O)c1cnccn1)B(O)O [Bortezomib]
- effect on sPLA2-IIA protein expression [1]: dramatically downregulated
- effect on sPLA2-IIA secretion (ELISA of culture medium) [2]: significantly inhibited
- effect on EGF-stimulated promoter activity of sPLA2-IIA gene (sPLA2-IIA gene promoter): blocked

Molecule: CS(=O)(=O)CCNCc1ccc(-c2ccc3ncnc(Nc4ccc(OCc5cccc(F)c5)c(Cl)c4)c3c2)o1 [Lapatinib]
- effect on sPLA2-IIA expression in LAPC-4 and DU145 cells [3]: inhibited
- effect on sPLA2-IIA protein expression [1]: dramatically downregulated
- effect on sPLA2-IIA secretion (ELISA of culture medium) [2]: significantly inhibited
- effect on EGF-stimulated promoter activity of sPLA2-IIA gene (sPLA2-IIA gene promoter): blocked

Molecule: C#Cc1cccc(Nc2ncnc3cc(OCCOC)c(OCCOC)cc23)c1 [Erlotinib]
- effect on sPLA2-IIA protein expression [1]: moderate impact
- effect on sPLA2-IIA secretion (ELISA of culture medium) [2]: moderate effect
- effect on EGF-stimulated promoter activity of sPLA2-IIA gene (sPLA2-IIA gene promoter): blocked

Molecule: COc1cc2ncnc(Nc3ccc(F)c(Cl)c3)c2cc1OCCCN1CCOCC1 [Gefitinib]
- effect on sPLA2-IIA protein expression [1]: moderate impact
- effect on sPLA2-IIA secretion (ELISA of culture medium) [2]: moderate effect
- effect on EGF-stimulated promoter activity of sPLA2-IIA gene (sPLA2-IIA gene promoter): blocked

Molecule: C=CC(=O)Nc1cc2c(Nc3ccc(F)c(Cl)c3)ncnc2cc1OCCCN1CCOCC1 [CI-1033]
- effect on sPLA2-IIA protein expression [1]: moderate impact
- effect on sPLA2-IIA secretion (ELISA of culture medium) [2]: moderate effect
- effect on EGF-stimulated promoter activity of sPLA2-IIA gene (sPLA2-IIA gene promoter): blocked
